Earlier results, collected in US20220323356A1, “METAL (HYDR)OXIDE COMPOSITE COMPRISING POORLY SOLUBLE DRUG, METHOD FOR PREPARING SAME, AND PHARMACEUTICAL COMPOSITION COMPRISING SAME” (priority 2020, published 2022).
Structures can show the parent of a compound that is named as a salt. *1 amine or outer side, *2 acyl side, *3 side chain or, on linkers, in order; H or OH if unused. Where a SMILES comes first, the peptide text is derived from it. Bridges are numbered along the chain shown (N, C = ends). [ ]: non-standard residue; d: D form. The star is where a group is joined. pTerphenylCO(4''-OnC5H11) = CCCCCOc1ccc(-c2ccc(-c3ccc(C(=O)*)cc3)cc2)cc1; Orn(4R-OH,5R-OH) = O=C([C@H](C[C@@H](O)[C@@H](O)N[*:3])N[*:1])[*:2]; hTyr(3S-OH,4S-OH) = N[C@H](C(=O)O)[C@H](O)[C@@H](O)c1ccc(O)cc1; Pro(3S-OH,4S-Me) = C[C@H]1CN[C@H](C(=O)O)[C@H]1O; Hyp = O=C(O)[C@@H]1C[C@@H](O)CN1

Details: in vivo; cited from earlier work
In the case of `CC(=O)CCCCn1c(=O)c2c(ncn2C)n(C)c1=O` [pentoxifylline], the “bioavailability (%)” value is given as 20%.
For `CCN(CC)CCOc1ccc2c(c1)C(=O)c1cc(OCCN(CC)CC)ccc1-2` [Tilorone], the “bioavailability (%)” value is given as 60%.
In the case of `COC1=C(OC)C(=O)C(CCCCCCCCCCO)=C(C)C1=O` [idebenone], the “bioavailability (%)” value is listed as <1%.
In the case of `COc1cc2nccc(Oc3ccc(NC(=O)C4(C(=O)Nc5ccc(F)cc5)CC4)cc3)c2cc1OC` [Cabozantinib], the “bioavailability (%)” value is listed as 74-93%.
For `CN(C)C(=O)C(CCN1CCC(O)(c2ccc(Cl)cc2)CC1)(c1ccccc1)c1ccccc1` [loperamide], the “bioavailability (%)” value is given as 0.3%.
In the case of `CC(=O)[C@]1(O)Cc2c(O)c3c(c(O)c2[C@@H](O[C@H]2C[C@H](N)[C@H](O)[C@H](C)O2)C1)C(=O)c1ccccc1C3=O` [Idarubicin], the “bioavailability (%)” value is listed as 20-25%.
For `C[C@H]1O[C@@H](O[C@H]2[C@@H](O)C[C@H](O[C@H]3[C@@H](O)C[C@H](O[C@H]4CC[C@@]5(C)[C@H](CC[C@@H]6[C@@H]5C[C@@H](O)[C@]5(C)[C@@H](C7=CC(=O)OC7)CC[C@]65O)C4)O[C@@H]3C)O[C@@H]2C)C[C@H](O)[C@@H]1O` [digoxin], the “bioavailability (%)” value is listed as 50~90%.
In the case of `CCc1nc(C(N)=O)c(Nc2ccc(N3CCC(N4CCN(C)CC4)CC3)c(OC)c2)nc1NC1CCOCC1` [gilteritinib], the “bioavailability (%)” value is listed as 60%.
For `Oc1ncnc2[nH]ncc12` [allopurinol], the “bioavailability (%)” value is listed as 67%.
In the case of `COc1ccc2cc1Oc1ccc(cc1)C[C@H]1c3c(cc4c(c3Oc3cc5c(cc3OC)CCN(C)[C@@H]5C2)OCO4)CCN1C` [cepharanthine], the “bioavailability (%)” value is listed as 5%.
In the case of `Cc1cccc(C)c1OCC(=O)N[C@@H](Cc1ccccc1)[C@@H](O)C[C@H](Cc1ccccc1)NC(=O)[C@H](C(C)C)N1CCCNC1=O` [lopinavir], the “bioavailability (%)” value is given as 25%.
For `C1CCC(C(CC2CCCCN2)C2CCCCC2)CC1` (centres unmarked) [perhexiline maleate], the “bioavailability (%)” value is given as 80%.
In the case of `CCN(CC)Cc1cc(Nc2ccnc3cc(Cl)ccc23)ccc1O` [amodiaquine], the “bioavailability (%)” value is given as 22%.
In the case of `CCN1CCN(Cc2ccc(Nc3ncc(F)c(-c4cc(F)c5nc(C)n(C(C)C)c5c4)n3)nc2)CC1` [abemaciclib(USAN), abemaciclib], the “bioavailability (%)” value is given as 45%.
In the case of `NC(=O)c1nc(F)c[nH]c1=O` [favipiravir], the “bioavailability (%)” value is listed as 98%.
In the case of `Oc1c(Cl)cc(Cl)c(Cl)c1Cc1c(O)c(Cl)cc(Cl)c1Cl` [hexachlorophene], the “bioavailability (%)” value is given as 4~10%.
In the case of `CCCCc1oc2ccc(NS(C)(=O)=O)cc2c1C(=O)c1ccc(OCCCN(CCCC)CCCC)cc1` [dronedarone], the “bioavailability (%)” value is listed as 15%.
In the case of `Cc1c(-c2ccc(O)cc2)n(Cc2ccc(OCCN3CCCCCC3)cc2)c2ccc(O)cc12` [bazedoxifene], the “bioavailability (%)” value is listed as 6%.
In the case of `C#Cc1cccc(Nc2ncnc3cc(OCCOC)c(OCCOC)cc23)c1` [erlotinib], the “bioavailability (%)” value is given as 59%.
In the case of `Cc1ccc(Nc2nccc(N(C)c3ccc4c(C)n(C)nc4c3)n2)cc1S(N)(=O)=O` [pazopanib], the “bioavailability (%)” value is listed as 14-39%.
For `C[C@@H]1O[C@@H](O[C@@H]2C=C3CC[C@@H]4[C@H](CC[C@]5(C)[C@@H](c6ccc(=O)oc6)CC[C@]45O)[C@@]3(C)CC2)[C@H](O)[C@H](O)[C@H]1O` [proscillaridin], the “bioavailability (%)” value is listed as 25%.
In the case of `CN(C)CCOc1ccc(/C(=C(/CCCl)c2ccccc2)c2ccccc2)cc1` [toremifene], the “bioavailability (%)” value is given as 100%.
In the case of `O=c1[nH]cc(F)c(=O)[nH]1` [Fluorouracil], the “bioavailability (%)” value is given as 28%.
In the case of `O=C1O[C@H]([C@@H](O)CO)C(O)=C1O` [Ascorbic acid], the “bioavailability (%)” value is listed as 69%.
In the case of `CC(=O)Nc1cccc(-n2c(=O)n(C3CC3)c(=O)c3c(Nc4ccc(I)cc4F)n(C)c(=O)c(C)c32)c1` [trametinib], the “bioavailability (%)” value is given as 72%.
For `CCN(CC)CCOc1ccc(C(=C(Cl)c2ccccc2)c2ccccc2)cc1` [clomiphene], the “bioavailability (%)” value is given as 90%.
In the case of `OC(c1cc(C(F)(F)F)nc2c(C(F)(F)F)cccc12)C1CCCCN1` (centres unmarked) [mefloquine], the “bioavailability (%)” value is given as 85%.
In the case of `CSc1ccc2c(c1)N(CCC1CCCCN1C)c1ccccc1S2` (centres unmarked) [thioridazine], the “bioavailability (%)” value is listed as 28%.
For `CNC(=O)c1ccccc1Sc1ccc2c(/C=C/c3ccccn3)n[nH]c2c1` [Axitinib], the “bioavailability (%)” value is listed as 58%.
In the case of `CC(=O)N[C@@H](CS)C(=O)O` [acetylcysteine], the “bioavailability (%)” value is given as 10%.
In the case of `CO[C@H]1C[C@@H]2CC[C@@H](C)[C@@](O)(O2)C(=O)C(=O)N2CCCC[C@H]2C(=O)O[C@H]([C@H](C)C[C@@H]2CC[C@@H](OCCO)[C@H](OC)C2)CC(=O)[C@H](C)/C=C(\C)[C@@H](O)[C@@H](OC)C(=O)[C@H](C)C[C@H](C)/C=C/C=C/C=C/1C` [everolimus], the “bioavailability (%)” value is given as 5%.
In the case of `COc1cccc2c1C(=O)c1c(O)c3c(c(O)c1C2=O)C[C@@](O)(C(=O)CO)C[C@@H]3O[C@H]1C[C@H](N)[C@H](O)[C@H](C)O1` [doxorubicin], the “bioavailability (%)” value is given as 5%.
For `Cc1cn(-c2cc(NC(=O)c3ccc(C)c(Nc4nccc(-c5cccnc5)n4)c3)cc(C(F)(F)F)c2)cn1` [nilotinib], the “bioavailability (%)” value is listed as 30%.
For `CC1=NN(c2ccc(C)c(C)c2)C(=O)/C1=N\Nc1cccc(-c2cccc(C(=O)O)c2)c1O` [eltrombopag], the “bioavailability (%)” value is given as 52%.
For `Cc1c(C(=O)Nc2ccc(N3C[C@@H](C)O[C@@H](C)C3)nc2)cccc1-c1ccc(OC(F)(F)F)cc1` [sonidegib], the “bioavailability (%)” value is given as 69%.
In the case of `CC(=O)O[C@H]1C(=O)[C@@]2(C)[C@H]([C@H](OC(=O)c3ccccc3)[C@]3(O)C[C@H](OC(=O)[C@H](O)[C@@H](NC(=O)c4ccccc4)c4ccccc4)C(C)=C1C3(C)C)[C@]1(OC(C)=O)CO[C@@H]1C[C@@H]2O` [Paclitaxel], the “bioavailability (%)” value is listed as 30%.
In the case of `CC(=O)[C@@]1(O)CC[C@H]2[C@@H]3CCC4=CC(=O)CC[C@]4(C)[C@H]3CC[C@@]21C` [hydroxyprogesterone], the “bioavailability (%)” value is given as 3%.
For `CC(C)(Sc1cc(C(C)(C)C)c(O)c(C(C)(C)C)c1)Sc1cc(C(C)(C)C)c(O)c(C(C)(C)C)c1` [probucol], the “bioavailability (%)” value is given as 6%.
For `COc1ccc2[nH]cc(CCNC(C)=O)c2c1` [melatonin], the “bioavailability (%)” value is given as 15%.
In the case of `CCN(CC)CCCC(C)Nc1ccnc2cc(Cl)ccc12` (centres unmarked) [chloroquine], the “bioavailability (%)” value is given as 50~100%.
For `O=C(Nc1ccc([N+](=O)[O-])cc1Cl)c1cc(Cl)ccc1O` [niclosamide], the “bioavailability (%)” value is given as 10%.
In the case of `CC(C)(C)c1nc(-c2cccc(NS(=O)(=O)c3c(F)cccc3F)c2F)c(-c2ccnc(N)n2)s1` [dabrafenib], the “bioavailability (%)” value is listed as 95%.
In the case of `C[C@]12CC[C@H](O)CC1=CC[C@@H]1[C@@H]2CC[C@]2(C)C(c3cccnc3)=CC[C@@H]12` [Abiraterone], the “bioavailability (%)” value is listed as <10%.
In the case of `CC(C)C(=O)OCC(=O)[C@@]12O[C@H](C3CCCCC3)O[C@@H]1C[C@H]1[C@@H]3CCC4=CC(=O)C=C[C@]4(C)[C@H]3[C@@H](O)C[C@@]12C` [ciclesonide], the “bioavailability (%)” value is given as <1%.
In the case of `CCCCCOc1ccc(-c2ccc(-c3ccc(C(=O)N[C@H]4C[C@@H](O)[C@@H](O)NC(=O)[C@@H]5[C@@H](O)[C@@H](C)CN5C(=O)[C@H]([C@@H](C)O)NC(=O)[C@H]([C@H](O)[C@@H](O)c5ccc(O)cc5)NC(=O)[C@@H]5C[C@@H](O)CN5C(=O)[C@H]([C@@H](C)O)NC4=O)cc3)cc2)cc1` [anidulafungin(LY303366), anidulafungin] ({pTerphenylCO(4''-OnC5H11)}-[Orn(4R-OH,5R-OH)]T[Hyp][hTyr(3S-OH,4S-OH)]T[Pro(3S-OH,4S-Me)]; lactam 1-C), the “bioavailability (%)” value is listed as 2~7%.
In the case of `C=CC(=O)Nc1cc(Nc2nccc(-c3cn(C)c4ccccc34)n2)c(OC)cc1N(C)CCN(C)C` [osimertinib(AZD-9291), osimertinib], the “bioavailability (%)” value is listed as 70%.
For `CC[C@@]1(O)C(=O)OCc2c1cc1n(c2=O)Cc2cc3c(CN(C)C)c(O)ccc3nc2-1` [Topotecan], the “bioavailability (%)” value is given as 30-44%.
In the case of `CS(=O)(=O)CCNCc1ccc(-c2ccc3ncnc(Nc4ccc(OCc5cccc(F)c5)c(Cl)c4)c3c2)o1` [lapatinib], the “bioavailability (%)” value is given as 60%.
For `CC/C(=C(/c1ccc(OCCN(C)C)cc1)c1cccc(O)c1)c1ccccc1` [droloxifene], the “bioavailability (%)” value is listed as 2%.
In the case of `N#Cc1cc(NC(=O)C(=O)O)c(Cl)c(NC(=O)C(=O)O)c1` [lodoxamide], the “bioavailability (%)” value is listed as 71%.
For `CC[C@@H](C(=O)[C@@H](C)[C@@H](O)[C@H](C)[C@@H]1O[C@@H]([C@@H](CC)C(=O)O)CC[C@@H]1C)[C@H]1O[C@]2(C=C[C@@H](O)[C@]3(CC[C@@](C)([C@H]4CC[C@](O)(CC)[C@H](C)O4)O3)O2)[C@H](C)C[C@@H]1C` [salinomycin], the “bioavailability (%)” value is given as 73%.
For `CC(C)(C)c1cc(C(C)(C)C)c(NC(=O)c2c[nH]c3ccccc3c2=O)cc1O` [ivacaftor], the “bioavailability (%)” value is listed as 20~30%.
For `C[C@H]1O[C@@H](O[C@H]2[C@@H](O)C[C@H](O[C@H]3[C@@H](O)C[C@H](O[C@H]4CC[C@@]5(C)[C@H](CC[C@@H]6[C@@H]5CC[C@]5(C)[C@@H](C7=CC(=O)OC7)CC[C@]65O)C4)O[C@@H]3C)O[C@@H]2C)C[C@H](O)[C@@H]1O` [digitoxin], the “bioavailability (%)” value is listed as 98%.
For `COc1cc(Nc2c(C#N)cnc3cc(OCCCN4CCN(C)CC4)c(OC)cc23)c(Cl)cc1Cl` [Bosutinib], the “bioavailability (%)” value is given as 34%.
In the case of `Cc1cc(Nc2ncc(Cl)c(Nc3ccccc3S(=O)(=O)C(C)C)n2)c(OC(C)C)cc1C1CCNCC1` [ceritinib(LDK378), ceritinib], the “bioavailability (%)” value is listed as 50%.
In the case of `CCN(CCO)CCCC(C)Nc1ccnc2cc(Cl)ccc12` (centres unmarked) [hydroxychloroquine], the “bioavailability (%)” value is listed as 70%.
For `COc1cc2c3cc1Oc1c(OC)c(OC)cc4c1[C@@H](Cc1ccc(O)c(c1)Oc1ccc(cc1)C[C@@H]3N(C)CC2)N(C)CC4` [berbamine], the “bioavailability (%)” value is listed as 30%.
For `CCCN[C@H]1CCc2nc(N)sc2C1` [pramipexole], the “bioavailability (%)” value is listed as 90%.
In the case of `O=c1c(O)c(-c2ccc(O)c(O)c2)oc2cc(O)cc(O)c12` [quercetin], the “bioavailability (%)” value is given as 20%.
For `COC(=O)N[C@H](C(=O)N[C@@H](Cc1ccccc1)[C@@H](O)CN(Cc1ccc(-c2ccccn2)cc1)NC(=O)[C@@H](NC(=O)OC)C(C)(C)C)C(C)(C)C` [atazanavir], the “bioavailability (%)” value is listed as 60%.
For `Cn1nnc2c(C(N)=O)ncn2c1=O` [temozolomide], the “bioavailability (%)” value is listed as 100%.
For `N.N.O=C([O-])C1(C(=O)[O-])CCC1.[Pt+2]` [carboplatin], the “bioavailability (%)” value is listed as 1.16%.
